Assay results as given in BindingDB's records for doi:10.1038/sj.mp.4000336 (University of Toronto, 1998).

These compounds were tested against 5-hydroxytryptamine receptor 2A (Rattus norvegicus, UniProt P14842).
5-hydroxytryptamine receptor 2A, sequence (P14842 whole entry): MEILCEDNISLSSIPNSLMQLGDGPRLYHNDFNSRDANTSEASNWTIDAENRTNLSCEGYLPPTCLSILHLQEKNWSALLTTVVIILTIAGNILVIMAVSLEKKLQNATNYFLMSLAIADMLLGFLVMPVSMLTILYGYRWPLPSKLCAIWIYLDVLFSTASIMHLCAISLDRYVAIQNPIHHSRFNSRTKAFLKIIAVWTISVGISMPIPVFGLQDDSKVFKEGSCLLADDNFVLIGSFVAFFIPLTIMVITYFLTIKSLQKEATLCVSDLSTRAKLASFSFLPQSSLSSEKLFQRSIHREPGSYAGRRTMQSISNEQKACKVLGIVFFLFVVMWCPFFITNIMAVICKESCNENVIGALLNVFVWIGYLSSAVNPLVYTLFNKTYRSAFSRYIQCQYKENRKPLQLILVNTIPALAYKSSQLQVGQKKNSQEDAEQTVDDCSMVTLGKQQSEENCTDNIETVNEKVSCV

| Ki [µM] | Compound |
| --- | --- |
| 0.0013 | O=C1C2CCCCC2C(=O)N1CCCCN1CCN(c2nsc3ccccc23)CC1 (stereo not drawn) [NSC_115368] |
| 5.2 | CCN1CCC[C@H]1CNC(=O)c1c(OC)ccc(Br)c1OC |
| 4 | CCN1CCC[C@H]1CNC(=O)c1c(O)c(Cl)cc(Cl)c1OC [3,5-Dichloro-N-(1-ethyl-pyrrolidin-2-ylmethyl)-2-hydroxy-6-methoxy-benzamide (raclopride)] |
